Series [1] in a line: Metabolic stability in rat NR8383 cells after 2 hrs by LC-MS-MS analysis. It is filed as ADME, cell-based. Conditions: nr8383, 2 h.
A short description of series [2]: Metabolic stability in rat L2 cells after 2 hrs by LC-MS-MS analysis. It is filed as ADME, cell-based. Conditions: l2, 2 h.
For the next series, the system named is Rattus norvegicus. In words: Inhibition of house dust mites allergan-induced eosinophil recruitment in Brown Norway rat model at 25 to 35 ug/kg administered via intratracheal aerosolization 2 hrs prior to allergan challenge measured after 48 hrs by bronchoalveolar lavage method. It is filed as functional, organism-based. Conditions: Lung.

Molecules are shown by their SMILES. Activity calls are given as the source filed them. No cut-off for these calls is given here.

Consider `CC(C)[C@H](NC(=O)[C@H](C)NC(=O)[C@H](Cc1ccccc1)NC(=O)c1ccccc1)C(=O)C(=O)NCC(=O)N1CCN(C)CC1`, for which the Stability entry in series [1] and in series [2] was “Stable” in each case. Besides, the inhibition result in the series with Rattus norvegicus was “Active”.

Regarding `CC(C)[C@H](NC(=O)[C@H](C)NC(=O)[C@@H](NC(=O)c1ccncc1)C(C)(C)C)C(=O)C(=O)NC1CCCCC1`, the Stability result in series [1] and in series [2] was “Stable” in each case. The inhibition result with Rattus norvegicus is “Active”.

For the molecule `CC(C)[C@H](NC(=O)[C@H](C)NC(=O)[C@@H](NC(=O)C1CC[N+](C)(C)CC1)C(C)(C)C)C(=O)C(=O)NCc1ccccc1.O=C[O-]`, the Stability entry in series [1] and in series [2] was “Stable” throughout.

On to `CC(C)[C@H](NC(=O)[C@H](C)NC(=O)[C@@H](NC(=O)c1ccccc1)C(C)(C)C)C(=O)C(=O)NCc1ccccc1`, for which the Stability result in series [1] and in series [2] was “Stable” in each case.

Regarding `CC(C)[C@H](NC(=O)[C@H](C)NC(=O)[C@@H](NC(=O)c1ccnc2ccccc12)C(C)(C)C)C(=O)C(=O)NCc1ccccc1`, the Stability entry in series [1] and in series [2] was “Stable” in each case. In the series on Rattus norvegicus, the inhibition entry was “Active”.

Turning to `CC(C)[C@H](NC(=O)[C@H](C)NC(=O)[C@H](Cc1ccccc1)NC(=O)c1cccc2ccccc12)C(=O)C(=O)NCC(=O)N1CCN(C)CC1`, the Stability result in series [1] and in series [2] was “Stable” throughout. In addition, in the series on Rattus norvegicus, the inhibition entry is “Active”.

As to `CC(C)[C@H](NC(=O)[C@H](C)NC(=O)[C@H](Cc1ccccc1)NC(=O)c1ccccc1)C(=O)C(=O)NCC(=O)N1CC[N+](C)(C)CC1.O=C[O-]`, the Stability result in series [1] and in series [2] was “Stable” each time.

Take `CC(C)[C@H](NC(=O)[C@H](C)NC(=O)[C@H](Cc1ccccc1)NC(=O)c1ccccc1)C(=O)C(=O)NCC(=O)N1CCOCC1`: the Stability result in series [1] and in series [2] was “Stable” in each case. Besides, the inhibition result in the series with Rattus norvegicus was “Active”.

The record behind these values is ChEMBL document CHEMBL3351248, “The discovery of potent, selective, and reversible inhibitors of the house dust mite peptidase allergen Der p 1: an innovative approach to the treatment of allergic asthma” (J Med Chem, 2014).
